MIC data for nine compounds are collected here from patent US9284325B2, “Spectinamides as anti-tuberculosis agents” (UNIVERSITY OF TENNESSEE RESEARCH FOUNDATION, priority 2009, dated 2016).

The test system of assay [1] is Acinetobacter baumannii ATCC 19606. Put plainly: MIC determination by microbroth dilution. It counts as cell-based. The conditions noted are these: ATCC19606. (In general: In broth dilution the organism is exposed to a series of concentrations in liquid medium.)
Assay [2] has as its system Klebsiella pneumoniae ATCC 33495. The assay is described as follows: MIC determination by microbroth dilution. It counts as cell-based. The conditions noted are these: ATCC33495.
Assay [3] concerns Strenotrophomonas maltophilia ATCC 13637. Put plainly: MIC determination by microbroth dilution. It counts as cell-based.
Assay [4] deals with Strep. pyogenes ATCC 700294. Put plainly: MIC determination by microbroth dilution. The conditions noted are these: Streptococcus pyogenes, ATCC700294, read-out: MIC S. pyogenes. The assay is classed as cell-based, Streptococcus pyogenes.
For assay [5], the system named is Proteus vulgaris ATCC 33420. The assay is described as follows: MIC determination by microbroth dilution. The assay is classed as cell-based. The conditions noted are these: ATCC33420.
For the next assay, the system named is B. anthracis Sterne 34F2. Put plainly: microbe, parasite or virus in culture. It counts as cell-based, Bacillus anthracis. The conditions noted are these: Bacillus anthracis, STERNE34F2, read-out: MIC B. anthracis 34F2.
The test system of a further assay is E. faecalis ATCC 33186. Put plainly: MIC determination by microbroth dilution. It counts as cell-based, Enterococcus faecalis. The conditions noted are these: Enterococcus faecalis, ATCC33186.
Assay [6] has as its system S. aureus 8325 or strain ATCC 29213. Put plainly: MIC determination by microbroth dilution. It counts as cell-based, Staphylococcus aureus. The conditions noted are these: Staphylococcus aureus, ATCC29213; S. aureus 8325 or strain ATCC 29213 (for 1471-1544).
Another assay deals with P. aeruginosa PAO1. The assay is described as follows: MIC determination by microbroth dilution. It counts as cell-based, Pseudomonas aeruginosa. The conditions noted are these: Pseudomonas aeruginosa.
In assay [7] the test system is Proteus mirabilis ATCC 25933. The assay is described as follows: MIC determination by microbroth dilution. The conditions noted are these: ATCC25933. It counts as cell-based.
Assay [8] concerns Burkholderia cepacia ATCC 25416. Put plainly: MIC determination by microbroth dilution. It counts as cell-based. The conditions noted are these: ATCC25416, read-out: MIC B. cepcia.
Assay [9] has as its system Strep. pneumoniae DAW27 or strain R6. Put plainly: MIC determination by microbroth dilution. The assay is classed as cell-based, Streptococcus pneumoniae. The conditions noted are these: Streptococcus pneumoniae; Strep. pneumoniae DAW27 or strain R6 (for 1443-1544); read-out: MIC S. pneumoniae.
The test system of a further assay is E. coli K12 ΔtolC. Put plainly: microbe, parasite or virus in culture. The assay is classed as cell-based. The conditions noted are these: Escherichia coli, read-out: MIC E. coli K12 ΔtolC.
In the next assay the test system is M. tuberculosis H37Rv. Put plainly: MIC determination by microbroth dilution, anti-tuberculosis activity. It counts as cell-based, Mycobacterium tuberculosis. The conditions noted are these: Mycobacterium tuberculosis, H37RV, 168 h; read-out: MIC.
In a further assay the test system is E. coli K12. Put plainly: MIC determination by microbroth dilution. The assay is classed as cell-based, Escherichia coli. The conditions noted are these: Escherichia coli, K12.

Structures can show the parent of a compound that is named as a salt.

On to `CC[C@H](C)[C@H](N)C(=O)N[C@@H]1C[C@@H](C)OC2OC3C(O[C@]21O)[C@@H](NC)[C@@H](O)[C@@H](NC)[C@@H]3O` (stereo partly drawn) [Compound 1485, 3′-Dihydro-3′-deoxy-4(R)-[(2S,3S)-2-amino,3-methyl]pentanoylamino spectinomycin Trihydrochloride], for which the MIC in [1] was above 200 µg/mL; in assay [2], above 200 µg/mL; in [3], above 200 µg/mL; in assay [4] it was 25 µg/mL; in assay [5] it was above 200 µg/mL; in the assay with B. anthracis Sterne 34F2, above 200 µg/mL. Also, the MIC in the assay on E. faecalis ATCC 33186 is above 200 µg/mL; in assay [6] it was above 200 µg/mL; against P. aeruginosa PAO1 it was above 200 µg/mL; in assay [7], above 200 µg/mL; in [8] it was above 200 µg/mL; in [9], 25 µg/mL. The MIC in the assay with E. coli K12 ΔtolC is above 200 µg/mL; in the assay with M. tuberculosis H37Rv, 200 µg/mL.
For `CN[C@@H]1[C@H](O)[C@H](NC)C2O[C@]3(O)C(OC2[C@H]1O)O[C@H](C)C[C@H]3NC(=O)C[C@@H](N)c1ccc(F)cc1` (stereo partly drawn) [Compound 1487, 3′-Dihydro-3′-deoxy-4(R)-[3(R)-amino,3-(4-fluorophenyl)]propanoylamino spectinomycin Trihydrochloride], the MIC in [1] is above 200 µg/mL; in assay [2], above 200 µg/mL; with E. coli K12, 200 µg/mL; in assay [3], above 200 µg/mL; in assay [4] it was 50 µg/mL; in assay [5], above 200 µg/mL. Further, the MIC (with B. anthracis Sterne 34F2; in the assay with E. faecalis ATCC 33186; in assay [6]; in the assay with P. aeruginosa PAO1; in assay [7]; in [8]) was above 200 µg/mL in each case. The MIC was 12.5 µg/mL in [9], 200 µg/mL in the assay with E. coli K12 ΔtolC and 200 µg/mL in the assay on M. tuberculosis H37Rv.
With `CN[C@@H]1[C@H](O)[C@H](NC)C2O[C@]3(O)C(OC2[C@H]1O)O[C@H](C)C[C@H]3NC(=O)c1ccccc1F` (stereo partly drawn) [Compound 1492, 3′-Dihydro-3′-deoxy-4(R)-(2-fluorobenzene-1-yl)carboxylicamino spectinomycin dihydrochloride], the MIC in assay [1] was above 200 µg/mL; in assay [2] it was above 200 µg/mL; with E. coli K12 it was above 200 µg/mL; in [3], above 200 µg/mL; in assay [4], 50 µg/mL; in assay [5] it was above 200 µg/mL. Besides, the MIC (with B. anthracis Sterne 34F2; in the assay with E. faecalis ATCC 33186; in assay [6]; in the assay with P. aeruginosa PAO1; in assay [7]; in [8]) was above 200 µg/mL each time. Besides, the MIC in [9] was 100 µg/mL; with E. coli K12 ΔtolC, 200 µg/mL; in the assay on M. tuberculosis H37Rv it was above 200 µg/mL.
Turning to `CN[C@@H]1[C@H](O)[C@H](NC)C2O[C@]3(O)C(OC2[C@H]1O)O[C@H](C)C[C@H]3NC(=O)Cc1csc(Nc2ccc(C(F)(F)F)cc2)n1` (stereo partly drawn) [Compound 1541, 3′-Dihydro-3′-deoxy-4(R)-(2-((4-(trifluoromethyl)phenyl)amino)-thiazol-4-yl)acetylamino spectinomycin tribromide], the MIC in assay [1] is above 200 µg/mL; in assay [2] it was above 200 µg/mL; against E. coli K12 it was above 200 µg/mL; in assay [3], 200 µg/mL; in [4], 6.25 µg/mL; in assay [5], above 200 µg/mL. The MIC is above 200 µg/mL in the assay with B. anthracis Sterne 34F2; 25 µg/mL against E. faecalis ATCC 33186; 100 µg/mL in assay [6]; 25 µg/mL in the assay on P. aeruginosa PAO1; above 200 µg/mL in [7]; above 200 µg/mL in assay [8]. Besides, the MIC in assay [9] was 3.1 µg/mL; in the assay with E. coli K12 ΔtolC, 12.5 µg/mL; in the assay with M. tuberculosis H37Rv, 6.25 µg/mL.
Turning to `CN[C@@H]1[C@H](O)[C@H](NC)C2O[C@]3(O)C(OC2[C@H]1O)O[C@H](C)C[C@H]3NC(=O)[C@H](Cc1ccccc1)NC(=O)CN` (stereo partly drawn) [Compound 1502, 3′-Dihydro-3′-deoxy-4(R)-[2(S)-(2-aminoacetamido)-3-phenyl]-propanoylamino spectinomycin Trihydrochloride], the MIC (in assay [1]; in assay [2]; in the assay on E. coli K12; in assay [3]; in [4]; in assay [5]) was above 200 µg/mL each time. The MIC (with B. anthracis Sterne 34F2; in the assay on E. faecalis ATCC 33186; in assay [6]; against P. aeruginosa PAO1; in [7]; in assay [8]) was above 200 µg/mL each time. Besides, the MIC (in [9]; with E. coli K12 ΔtolC; in the assay on M. tuberculosis H37Rv) was above 200 µg/mL throughout.
For `CN[C@@H]1[C@H](O)[C@H](NC)C2O[C@]3(O)C(OC2[C@H]1O)O[C@H](C)C[C@H]3NC(=O)Cc1csc(-c2ccccc2)n1` (stereo partly drawn) [Compound 1517, 3′-Dihydro-3′-deoxy-4(R)-(2-phenylthiazol-4-yl)acetylamino spectinomycin trihydrobromide], the MIC in assay [1] is above 200 µg/mL; in [2], above 200 µg/mL; against E. coli K12, above 200 µg/mL; in [3] it was above 200 µg/mL; in [4], 6.25 µg/mL; in assay [5], above 200 µg/mL. Besides, the MIC is above 200 µg/mL with B. anthracis Sterne 34F2; 100 µg/mL with E. faecalis ATCC 33186; 200 µg/mL in [6]; above 200 µg/mL against P. aeruginosa PAO1; above 200 µg/mL in [7]; above 200 µg/mL in assay [8]. Also, the MIC in assay [9] is 6.25 µg/mL; in the assay on E. coli K12 ΔtolC it was 200 µg/mL; in the assay with M. tuberculosis H37Rv it was 50 µg/mL.
For the compound `CN[C@@H]1[C@H](O)[C@H](NC)C2O[C@]3(O)C(OC2[C@H]1O)O[C@H](C)C[C@H]3NC(=O)Cc1csc(Nc2cccc(F)c2)n1` (stereo partly drawn) [Compound 1539, 3′-Dihydro-3′-deoxy-4(R)-(2-((3-fluorophenyl)amino)thiazol-4-yl)acetylamino spectinomycin tribromide], the MIC is above 200 µg/mL in assay [1]; above 200 µg/mL in [2]; above 200 µg/mL in the assay with E. coli K12; above 200 µg/mL in [3]; 3.1 µg/mL in assay [4]; above 200 µg/mL in assay [5]. For the same compound, the MIC in the assay on B. anthracis Sterne 34F2 is above 200 µg/mL; in the assay with E. faecalis ATCC 33186, 25 µg/mL; in assay [6], 100 µg/mL; in the assay with P. aeruginosa PAO1 it was above 200 µg/mL; in assay [7], above 200 µg/mL; in assay [8], above 200 µg/mL. Also, the MIC in assay [9] came out at 3.1 µg/mL; in the assay with E. coli K12 ΔtolC, 12.5 µg/mL; in the assay with M. tuberculosis H37Rv, 6.25 µg/mL.
Regarding `CN[C@@H]1[C@H](O)[C@H](NC)C2O[C@]3(O)C(OC2[C@H]1O)O[C@H](C)C[C@H]3NCCc1ccccc1` (stereo partly drawn) [Compound 1450, 3′-Dihydro-3′-deoxy-4(R)-2-phenylethylamino spectinomycin Trihydrochloride], in the assay with M. tuberculosis H37Rv, the MIC was determined as 200 µg/mL.
In the case of `CN[C@@H]1[C@H](O)[C@H](NC)C2O[C@]3(O)C(OC2[C@H]1O)O[C@H](C)C[C@H]3NC(=O)[C@@H](N)C(C)C` (stereo partly drawn) [Compound 1486, 3′-Dihydro-3′-deoxy-4(R)-[2(S)-amino,3-methyl]butanoylamino spectinomycin Trihydrochloride], the MIC in [1] was above 200 µg/mL; in [2], above 200 µg/mL; in assay [3], above 200 µg/mL; in assay [4], 50 µg/mL; in assay [5], above 200 µg/mL; with B. anthracis Sterne 34F2, above 200 µg/mL. The MIC (against E. faecalis ATCC 33186; in assay [6]; against P. aeruginosa PAO1; in [7]; in assay [8]; in [9]) was above 200 µg/mL each time. For the same compound, the MIC in the assay on E. coli K12 ΔtolC is above 200 µg/mL; in the assay with M. tuberculosis H37Rv, 200 µg/mL.
